# Laboratory results published in publication PMC10882719 (Frontiers in Neuroscience, 2024).
# Like-named read-outs stand apart in the source and are kept apart here.
# Experiments:
# Type in all cases: cell-based
# [1] = molecular target: T1, 168 GPCRs (Homo sapiens, UniProt P30989); conditions: NTSR1
# T1 construct: host or cells: PathHunter cell lines
# [2] = molecular target: T2, 168 GPCRs (Homo sapiens, UniProt Q16602)
# T2 construct: host or cells: PathHunter cell lines
# [3] = molecular target: T3, 168 GPCRs (Homo sapiens, UniProt Q15077); conditions: P2RY6
# T3 construct: host or cells: PathHunter cell lines
# [4] = molecular target: T4, 168 GPCRs (Homo sapiens, UniProt P43220); conditions: GLP1R
# T4 construct: host or cells: PathHunter cell lines
# [5] = molecular target: T5, 168 GPCRs (Homo sapiens, UniProt Q8TCW9); conditions: PROKR1
# T5 construct: host or cells: PathHunter cell lines
# [6] = molecular target: T6, 168 GPCRs (Homo sapiens, UniProt P30559); conditions: OXTR
# T6 construct: host or cells: PathHunter cell lines
# T6 sequence (P30559 1-389): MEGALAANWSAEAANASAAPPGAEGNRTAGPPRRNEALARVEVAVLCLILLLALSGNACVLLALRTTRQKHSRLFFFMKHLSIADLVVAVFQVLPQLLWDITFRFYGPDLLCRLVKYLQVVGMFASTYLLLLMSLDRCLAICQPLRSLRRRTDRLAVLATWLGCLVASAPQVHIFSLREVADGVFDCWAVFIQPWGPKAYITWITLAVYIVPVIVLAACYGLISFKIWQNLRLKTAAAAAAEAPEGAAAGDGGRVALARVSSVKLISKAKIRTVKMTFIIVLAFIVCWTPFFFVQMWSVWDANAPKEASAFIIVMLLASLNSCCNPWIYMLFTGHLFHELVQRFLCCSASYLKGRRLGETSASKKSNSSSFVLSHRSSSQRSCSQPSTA
# [7] = molecular target: T7, 168 GPCRs (Homo sapiens, UniProt P16473); conditions: TSHR(L)
# T7 construct: host or cells: PathHunter cell lines
# [8] = molecular target: T8, 168 GPCRs (Homo sapiens, UniProt P51686)
# T8 construct: host or cells: PathHunter cell lines
# T8 sequence (P51686 1-369): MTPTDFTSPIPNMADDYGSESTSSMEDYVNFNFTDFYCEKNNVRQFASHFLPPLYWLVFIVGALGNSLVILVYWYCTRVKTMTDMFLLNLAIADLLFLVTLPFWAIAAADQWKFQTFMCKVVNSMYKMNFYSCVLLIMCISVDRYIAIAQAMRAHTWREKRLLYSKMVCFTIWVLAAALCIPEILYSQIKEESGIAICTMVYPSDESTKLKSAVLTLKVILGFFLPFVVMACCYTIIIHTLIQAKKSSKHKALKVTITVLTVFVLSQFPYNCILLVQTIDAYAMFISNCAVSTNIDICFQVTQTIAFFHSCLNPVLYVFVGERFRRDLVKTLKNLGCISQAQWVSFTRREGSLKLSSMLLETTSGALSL
# [9] = molecular target: T9, 168 GPCRs (Homo sapiens, UniProt O43603)
# T9 construct: host or cells: PathHunter cell lines
# T9 sequence (O43603 1-387): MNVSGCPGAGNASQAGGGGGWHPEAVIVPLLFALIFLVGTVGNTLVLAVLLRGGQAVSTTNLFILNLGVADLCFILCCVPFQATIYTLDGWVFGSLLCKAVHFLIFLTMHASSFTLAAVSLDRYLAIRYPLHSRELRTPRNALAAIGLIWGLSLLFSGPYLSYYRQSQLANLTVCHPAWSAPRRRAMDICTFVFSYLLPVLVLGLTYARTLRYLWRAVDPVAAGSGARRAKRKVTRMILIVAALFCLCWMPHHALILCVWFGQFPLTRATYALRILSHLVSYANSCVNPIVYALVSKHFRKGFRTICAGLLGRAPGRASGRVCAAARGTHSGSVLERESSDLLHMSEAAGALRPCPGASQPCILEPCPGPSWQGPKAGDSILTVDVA
# [10] = molecular target: T10, 168 GPCRs (Homo sapiens, UniProt Q8TDS5); conditions: OXER1
# T10 construct: host or cells: PathHunter cell lines
# T10 sequence (Q8TDS5 whole entry): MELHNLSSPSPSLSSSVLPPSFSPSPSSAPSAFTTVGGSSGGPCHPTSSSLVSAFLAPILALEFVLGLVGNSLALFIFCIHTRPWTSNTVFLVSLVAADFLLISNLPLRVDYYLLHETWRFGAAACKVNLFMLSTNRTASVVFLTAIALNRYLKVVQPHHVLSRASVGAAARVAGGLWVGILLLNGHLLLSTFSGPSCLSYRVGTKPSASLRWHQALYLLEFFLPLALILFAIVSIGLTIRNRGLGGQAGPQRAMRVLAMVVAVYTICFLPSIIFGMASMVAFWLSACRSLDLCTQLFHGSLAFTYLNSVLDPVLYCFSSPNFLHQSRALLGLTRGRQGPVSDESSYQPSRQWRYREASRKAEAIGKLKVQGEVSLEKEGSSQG
# T2 sequence (Q16602 23-461): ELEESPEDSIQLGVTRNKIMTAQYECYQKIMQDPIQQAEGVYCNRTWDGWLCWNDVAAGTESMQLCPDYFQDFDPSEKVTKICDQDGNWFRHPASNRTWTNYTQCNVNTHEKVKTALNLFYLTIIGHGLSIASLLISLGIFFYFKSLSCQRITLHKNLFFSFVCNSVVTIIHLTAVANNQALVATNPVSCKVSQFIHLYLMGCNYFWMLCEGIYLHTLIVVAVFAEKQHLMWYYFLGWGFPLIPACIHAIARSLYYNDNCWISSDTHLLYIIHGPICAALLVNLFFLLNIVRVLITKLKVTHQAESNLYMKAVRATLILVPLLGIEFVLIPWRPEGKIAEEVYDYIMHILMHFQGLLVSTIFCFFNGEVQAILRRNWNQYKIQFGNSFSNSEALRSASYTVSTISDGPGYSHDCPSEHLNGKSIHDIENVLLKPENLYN
# T4 sequence (P43220 24-463): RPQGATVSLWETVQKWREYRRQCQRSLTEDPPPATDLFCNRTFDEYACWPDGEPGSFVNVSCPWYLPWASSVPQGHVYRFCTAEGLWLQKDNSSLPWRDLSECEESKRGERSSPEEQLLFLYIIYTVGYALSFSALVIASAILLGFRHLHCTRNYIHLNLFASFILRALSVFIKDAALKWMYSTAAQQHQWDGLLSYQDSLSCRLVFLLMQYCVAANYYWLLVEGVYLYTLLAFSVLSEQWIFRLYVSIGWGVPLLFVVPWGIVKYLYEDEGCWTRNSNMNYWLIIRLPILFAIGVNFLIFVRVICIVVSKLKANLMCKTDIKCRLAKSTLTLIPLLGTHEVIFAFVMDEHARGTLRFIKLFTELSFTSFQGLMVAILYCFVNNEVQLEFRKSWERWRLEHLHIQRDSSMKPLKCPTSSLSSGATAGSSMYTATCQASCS
# T5 sequence (Q8TCW9 whole entry): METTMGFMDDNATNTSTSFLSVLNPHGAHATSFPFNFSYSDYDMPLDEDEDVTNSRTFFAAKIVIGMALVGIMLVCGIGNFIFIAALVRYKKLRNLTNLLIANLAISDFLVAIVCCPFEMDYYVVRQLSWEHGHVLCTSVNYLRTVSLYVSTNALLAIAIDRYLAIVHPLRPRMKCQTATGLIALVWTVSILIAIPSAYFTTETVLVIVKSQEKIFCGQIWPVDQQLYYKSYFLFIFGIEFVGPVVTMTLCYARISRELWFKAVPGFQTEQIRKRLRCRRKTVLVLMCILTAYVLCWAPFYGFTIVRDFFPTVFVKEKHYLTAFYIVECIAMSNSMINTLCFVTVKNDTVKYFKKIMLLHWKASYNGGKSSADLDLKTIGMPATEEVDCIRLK
# T3 sequence (Q15077 whole entry): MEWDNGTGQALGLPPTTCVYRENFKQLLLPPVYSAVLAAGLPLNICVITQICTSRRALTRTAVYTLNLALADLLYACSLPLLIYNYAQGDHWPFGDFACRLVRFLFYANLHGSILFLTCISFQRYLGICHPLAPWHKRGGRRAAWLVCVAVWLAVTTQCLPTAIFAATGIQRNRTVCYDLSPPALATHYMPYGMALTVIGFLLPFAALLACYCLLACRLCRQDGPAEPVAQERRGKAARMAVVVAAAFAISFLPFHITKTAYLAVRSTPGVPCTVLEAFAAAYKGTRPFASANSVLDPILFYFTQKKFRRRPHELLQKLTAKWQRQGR
# T1 sequence (P30989 whole entry): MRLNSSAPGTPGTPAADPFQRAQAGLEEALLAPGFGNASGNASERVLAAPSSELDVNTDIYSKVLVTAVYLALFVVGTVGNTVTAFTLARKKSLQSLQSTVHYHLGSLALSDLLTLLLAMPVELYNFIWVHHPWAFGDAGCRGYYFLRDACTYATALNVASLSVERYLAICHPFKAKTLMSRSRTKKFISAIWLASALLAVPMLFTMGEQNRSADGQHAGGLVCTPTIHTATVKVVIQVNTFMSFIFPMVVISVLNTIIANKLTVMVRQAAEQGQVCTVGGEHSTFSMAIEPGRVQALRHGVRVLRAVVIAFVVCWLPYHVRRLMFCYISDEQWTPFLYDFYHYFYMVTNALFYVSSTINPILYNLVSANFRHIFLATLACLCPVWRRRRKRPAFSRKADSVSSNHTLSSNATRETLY
# T7 sequence (P16473 21-764): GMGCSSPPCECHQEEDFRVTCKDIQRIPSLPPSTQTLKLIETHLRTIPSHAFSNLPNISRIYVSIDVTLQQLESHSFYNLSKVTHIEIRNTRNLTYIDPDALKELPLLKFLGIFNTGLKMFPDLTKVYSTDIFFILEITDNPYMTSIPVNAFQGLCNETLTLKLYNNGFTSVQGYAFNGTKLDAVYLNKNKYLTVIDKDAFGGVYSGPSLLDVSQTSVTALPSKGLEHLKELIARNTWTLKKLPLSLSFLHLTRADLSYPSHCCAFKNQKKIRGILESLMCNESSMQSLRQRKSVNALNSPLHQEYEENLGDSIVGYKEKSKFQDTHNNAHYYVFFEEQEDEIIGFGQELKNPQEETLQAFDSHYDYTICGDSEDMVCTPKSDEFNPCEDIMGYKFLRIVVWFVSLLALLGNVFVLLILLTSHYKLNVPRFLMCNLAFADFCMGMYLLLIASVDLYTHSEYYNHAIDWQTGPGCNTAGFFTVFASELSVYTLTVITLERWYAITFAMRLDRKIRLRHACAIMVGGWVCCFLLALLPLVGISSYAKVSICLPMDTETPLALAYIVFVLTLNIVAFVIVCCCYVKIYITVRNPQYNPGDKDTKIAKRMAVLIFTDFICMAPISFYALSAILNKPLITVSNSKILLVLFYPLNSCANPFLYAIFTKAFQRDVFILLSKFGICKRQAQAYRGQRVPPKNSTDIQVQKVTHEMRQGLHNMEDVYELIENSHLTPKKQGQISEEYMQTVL
compound,measurement,setting,value
CNC(C)C(=O)c1ccc2c(c1)OCO2 (stereo not drawn) [methylone],% Agonist Activity,[1]; Conc 1 uM,-4.7%
same,% Antagonist Activity,[1]; Conc 1 uM,-0.7%
same,% Agonist Activity,[1]; Conc 10 uM,-3.5%
same,% Antagonist Activity,[1]; Conc 10 uM,-1.7%
same,% Agonist Activity,"[2]; CALCRL-RAMP1, 1 uM",-2.6%
same,% Antagonist Activity,"[2]; CALCRL-RAMP1, 1 uM",4.7%
same,% Agonist Activity,"[2]; CALCRL-RAMP1, 10 uM",-0.2%
same,% Antagonist Activity,"[2]; CALCRL-RAMP1, 10 uM",7%
same,% Agonist Activity,"[2]; CALCRL-RAMP2, 1 uM",0.1%
same,% Antagonist Activity,"[2]; CALCRL-RAMP2, 1 uM",19.1%
same,% Agonist Activity,"[2]; CALCRL-RAMP2, 10 uM",2.8%
same,% Antagonist Activity,"[2]; CALCRL-RAMP2, 10 uM",7%
same,% Agonist Activity,"[2]; CALCRL-RAMP3, 1 uM",-2.2%
same,% Antagonist Activity,"[2]; CALCRL-RAMP3, 1 uM",-18.5%
same,% Agonist Activity,"[2]; CALCRL-RAMP3, 10 uM",-2.2%
same,% Antagonist Activity,"[2]; CALCRL-RAMP3, 10 uM",-7.5%
same,% Agonist Activity,[3]; Conc 1 uM,4.5%
same,% Antagonist Activity,[3]; Conc 1 uM,6.5%
same,% Agonist Activity,[3]; Conc 10 uM,2.4%
same,% Antagonist Activity,[3]; Conc 10 uM,2.6%
same,% Agonist Activity,[4]; 1 uM,-0.3%
same,% Antagonist Activity,[4]; 1 uM,3.4%
same,% Agonist Activity,[4]; 10 uM,-0.1%
same,% Antagonist Activity,[4]; 10 uM,-0.9%
same,% Agonist Activity,[5]; Conc 1 uM,-1.3%
same,% Antagonist Activity,[5]; Conc 1 uM,8.7%
same,% Agonist Activity,[5]; Conc 10 uM,-2.8%
same,% Antagonist Activity,[5]; Conc 10 uM,3.3%
same,% Agonist Activity,[6]; Conc 1 uM,-0.6%
same,% Antagonist Activity,[6]; Conc 1 uM,12.7%
same,% Agonist Activity,[6]; Conc 10 uM,-0.5%
same,% Antagonist Activity,[6]; Conc 10 uM,6.9%
same,% Agonist Activity,[7]; Conc 1 uM,-1.2%
same,% Antagonist Activity,[7]; Conc 1 uM,6.1%
same,% Agonist Activity,[7]; Conc 10 uM,0.7%
same,% Antagonist Activity,[7]; Conc 10 uM,-6.6%
same,% Agonist Activity,"[8]; CCR9, 1 uM",-0.5%
same,% Antagonist Activity,"[8]; CCR9, 1 uM",2.9%
same,% Agonist Activity,"[8]; CCR9, 10 uM",0.2%
same,% Antagonist Activity,"[8]; CCR9, 10 uM",-9.9%
same,% Agonist Activity,"[9]; GALR2, 1 uM",3.4%
same,% Antagonist Activity,"[9]; GALR2, 1 uM",7%
same,% Agonist Activity,"[9]; GALR2, 10 uM",1.9%
same,% Antagonist Activity,"[9]; GALR2, 10 uM",1.5%
same,% Agonist Activity,[10]; Conc 1 uM,3.2%
same,% Antagonist Activity,[10]; Conc 1 uM,2.9%
same,% Agonist Activity,[10]; Conc 10 uM,-3.7%
same,% Antagonist Activity,[10]; Conc 10 uM,7.6%
"CNC(C)Cc1ccc2c(c1)OCO2 (stereo not drawn) [MDMA, 3,4-Methylenedioxy methamphetamine, reference compound]",% Agonist Activity,[1]; Conc 1 uM,-0.8%
same,% Antagonist Activity,[1]; Conc 1 uM,8.7%
same,% Agonist Activity,[1]; Conc 10 uM,1.2%
same,% Antagonist Activity,[1]; Conc 10 uM,0.5%
same,% Agonist Activity,"[2]; CALCRL-RAMP1, 1 uM",0.3%
same,% Antagonist Activity,"[2]; CALCRL-RAMP1, 1 uM",6.8%
same,% Agonist Activity,"[2]; CALCRL-RAMP1, 10 uM",-0.6%
same,% Antagonist Activity,"[2]; CALCRL-RAMP1, 10 uM",8.1%
same,% Agonist Activity,"[2]; CALCRL-RAMP2, 1 uM",-1%
same,% Antagonist Activity,"[2]; CALCRL-RAMP2, 1 uM",28.7%
same,% Agonist Activity,"[2]; CALCRL-RAMP2, 10 uM",0.9%
same,% Antagonist Activity,"[2]; CALCRL-RAMP2, 10 uM",30.8%
same,% Agonist Activity,"[2]; CALCRL-RAMP3, 1 uM",-0.9%
same,% Antagonist Activity,"[2]; CALCRL-RAMP3, 1 uM",-8.1%
same,% Agonist Activity,"[2]; CALCRL-RAMP3, 10 uM",-1.4%
same,% Antagonist Activity,"[2]; CALCRL-RAMP3, 10 uM",-13%
same,% Agonist Activity,[3]; Conc 1 uM,4.9%
same,% Antagonist Activity,[3]; Conc 1 uM,2.5%
same,% Agonist Activity,[3]; Conc 10 uM,4.6%
same,% Antagonist Activity,[3]; Conc 10 uM,1.2%
same,% Agonist Activity,[4]; 1 uM,-0.4%
same,% Antagonist Activity,[4]; 1 uM,9.5%
same,% Agonist Activity,[4]; 10 uM,-0.2%
same,% Antagonist Activity,[4]; 10 uM,12.9%
same,% Agonist Activity,[5]; Conc 1 uM,0.3%
same,% Antagonist Activity,[5]; Conc 1 uM,-8.7%
same,% Agonist Activity,[5]; Conc 10 uM,0.7%
same,% Antagonist Activity,[5]; Conc 10 uM,8.5%
same,% Agonist Activity,[6]; Conc 1 uM,-0.2%
same,% Antagonist Activity,[6]; Conc 1 uM,3.7%
same,% Agonist Activity,[6]; Conc 10 uM,0.6%
same,% Antagonist Activity,[6]; Conc 10 uM,8.2%
same,% Agonist Activity,[7]; Conc 1 uM,-0.6%
same,% Antagonist Activity,[7]; Conc 1 uM,-8%
same,% Agonist Activity,[7]; Conc 10 uM,2.8%
same,% Antagonist Activity,[7]; Conc 10 uM,-5%
same,% Agonist Activity,"[8]; CCR9, 1 uM",0.1%
same,% Antagonist Activity,"[8]; CCR9, 1 uM",5.3%
same,% Agonist Activity,"[8]; CCR9, 10 uM",0.2%
same,% Antagonist Activity,"[8]; CCR9, 10 uM",14.5%
same,% Agonist Activity,"[9]; GALR2, 1 uM",-2.9%
same,% Antagonist Activity,"[9]; GALR2, 1 uM",-5.1%
same,% Agonist Activity,"[9]; GALR2, 10 uM",-3%
same,% Antagonist Activity,"[9]; GALR2, 10 uM",-7.3%
same,% Agonist Activity,[10]; Conc 1 uM,6.3%
same,% Antagonist Activity,[10]; Conc 1 uM,-7.5%
same,% Agonist Activity,[10]; Conc 10 uM,4.8%
same,% Antagonist Activity,[10]; Conc 10 uM,-1.7%
